From patent publication US20090239840A1, “AMINO SUBSTITUTED DIARYL[a,d]CYCLOHEPTENE ANALOGS AS [sequence] AGONISTS AND METHODS OF TREATMENT OF NEUROPSYCHIATRIC DISORDERS” (ACADIA PHARMACEUTICALS, INC., priority 2003, published 2009)

Columns and labels:
novel object recognition = assay: Novel object recognition (NOR) assay; assay type: in vivo; details: mice
Protocol: Salts of the compounds were administered to mice at one hour post-training (a time-point at which animals normally behaviorally discriminate between novel and familiar objects) and two hours post-training (a time-point at which these animals normally no longer discriminate between objects). Doses were selected to correspond to the approximate ID75 value in the MK-801 hyperactivity assay.

CYP 2C19 = CYP 2C19 (Homo sapiens, UniProt P33261); assay: CYP inhibition, 2C19; assay type: in vitro ADME
muscarinic M2 receptor = target: T1, muscarinic M2 receptor (Homo sapiens, UniProt P08172); assay: R-SAT functional screen, M2; assay type: cell-based; details: R-SAT
T1 construct: expressed in transfected cells
T1 sequence (P08172 1-466): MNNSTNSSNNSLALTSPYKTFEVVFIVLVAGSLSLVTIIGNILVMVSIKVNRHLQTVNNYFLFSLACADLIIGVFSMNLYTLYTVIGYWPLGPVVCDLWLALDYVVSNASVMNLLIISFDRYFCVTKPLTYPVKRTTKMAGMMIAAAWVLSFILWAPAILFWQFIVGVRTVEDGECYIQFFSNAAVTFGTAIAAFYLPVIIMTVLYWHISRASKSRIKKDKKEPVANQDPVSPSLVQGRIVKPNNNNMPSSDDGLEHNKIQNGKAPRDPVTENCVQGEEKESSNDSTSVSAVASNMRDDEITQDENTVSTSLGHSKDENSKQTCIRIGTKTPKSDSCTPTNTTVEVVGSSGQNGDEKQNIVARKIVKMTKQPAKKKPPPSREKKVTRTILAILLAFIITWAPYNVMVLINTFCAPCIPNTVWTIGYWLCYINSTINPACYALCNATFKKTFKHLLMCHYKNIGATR
Method in brief: (§1)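 Receptor Selection and Amplification Technology (R-SAT) functional cell assay at M1, M2, M3 receptors. Values reported as efficacy (eff) and potency as pEC50.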

muscarinic M3 receptor = target: T2, muscarinic M3 receptor (Homo sapiens, UniProt P20309); assay: R-SAT functional screen, M3; assay type: cell-based
T2 construct: expressed in transfected cells
Excerpt: The term “modulate” refers to the ability of a compound disclosed herein to alter the function of a muscarinic receptor. A modulator may activate the activity of a muscarinic receptor, may activate or inhibit the activity of a muscarinic receptor depending on the concentration of the compound exposed to the muscarinic receptor, or may inhibit the activity of a muscarinic receptor. The term “modulate” also refers to altering the function of a muscarinic receptor by increasing or decreasing the probability that a complex forms between a muscarinic receptor and a natural binding partner. A modulator may increase the probability that such a complex forms between the muscarinic receptor and the natural binding partner, may increase or decrease the probability that a complex forms between the muscarinic receptor and the natural binding partner depending on the concentration of the compound exposed to the muscarinic receptor, and or may decrease the probability that a complex forms between the muscarinic receptor and the natural binding partner. In some embodiments, modulation of the muscarinic receptor may be assessed using Receptor Selection and Amplification Technology (R-SAT) as described in U.S. Pat. No. 5,707,798, the disclosure of which is incorporated herein by reference in its entirety.
Several compounds disclosed herein were evaluated for activity at muscarinic receptors using Receptor Selection and Amplification Technology (R-SAT) as described in U.S. Pat. No. 5,707,798, the disclosure of which is incorporated herein by reference in its entirety. The efficacy (eff) and potency (expressed as pEC50) of these compounds are presented in Table 1 at M1, M2, and M3 receptors.

CYP 1A2 = target: T3, CYP 1A2 (Homo sapiens, UniProt P05177); assay: CYP inhibition, 1A2; assay type: in vitro ADME
T3 sequence (P05177 1-516): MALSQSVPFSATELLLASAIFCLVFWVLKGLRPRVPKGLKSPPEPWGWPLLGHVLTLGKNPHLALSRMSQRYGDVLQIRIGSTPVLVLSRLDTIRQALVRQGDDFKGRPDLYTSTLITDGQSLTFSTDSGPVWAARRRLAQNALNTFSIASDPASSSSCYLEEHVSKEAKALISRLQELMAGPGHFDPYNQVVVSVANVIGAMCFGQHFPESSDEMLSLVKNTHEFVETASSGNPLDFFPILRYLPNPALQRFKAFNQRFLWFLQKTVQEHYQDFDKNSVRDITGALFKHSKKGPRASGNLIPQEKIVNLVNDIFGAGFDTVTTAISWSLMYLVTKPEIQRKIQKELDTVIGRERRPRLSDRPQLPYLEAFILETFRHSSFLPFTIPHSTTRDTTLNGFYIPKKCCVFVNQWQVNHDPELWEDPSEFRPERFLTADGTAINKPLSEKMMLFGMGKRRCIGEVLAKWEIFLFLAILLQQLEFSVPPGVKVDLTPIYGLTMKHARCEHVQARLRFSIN

muscarinic M1 receptor = target: T4, muscarinic M1 receptor (Homo sapiens, UniProt P11229); assay: R-SAT functional screen, M1; assay type: cell-based; details: R-SAT
T4 construct: expressed in transfected cells
T4 sequence (P11229 1-460): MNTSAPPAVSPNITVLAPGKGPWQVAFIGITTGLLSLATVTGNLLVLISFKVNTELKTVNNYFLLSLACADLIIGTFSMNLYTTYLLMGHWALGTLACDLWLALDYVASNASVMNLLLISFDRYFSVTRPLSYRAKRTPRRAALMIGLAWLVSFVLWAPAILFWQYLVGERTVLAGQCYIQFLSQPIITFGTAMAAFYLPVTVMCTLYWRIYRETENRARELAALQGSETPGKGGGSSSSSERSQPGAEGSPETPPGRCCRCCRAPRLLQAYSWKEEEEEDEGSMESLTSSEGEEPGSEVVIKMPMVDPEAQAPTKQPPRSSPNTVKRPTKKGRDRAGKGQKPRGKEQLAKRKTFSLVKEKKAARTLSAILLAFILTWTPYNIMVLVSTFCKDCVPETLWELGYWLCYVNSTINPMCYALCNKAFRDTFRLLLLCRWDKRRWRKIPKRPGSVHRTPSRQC
Method in brief: as §1

CYP 3A4 = CYP 3A4 (Homo sapiens, UniProt P08684); assay: biochemical
Protocol: The compounds listed in Table 4 were profiled in a panel of in vitro assays for assessment of cardiovascular (hERG), drug-drug interaction (CYP inhibition), and mutagenic (Ames) liability. Microsomal stability was also determined by measuring both rat and human microsomal clearance.

[1] = Human microsomal clearance; assay type: in vitro ADME; details: human microsomes
5-HT2A receptor = 5-HT2A receptor (Homo sapiens, UniProt P28223); assay: Receptor profile, 5-HT2A inverse agonism; assay type: cell-based; details: negative log of the inhibitory IC50 (inverse agonism); read-out: 5-HT2A pIEC50 (converted)
hERG = hERG (Homo sapiens, UniProt Q12809); assay: hERG assay
[2] = test system: hyperactivity induced by MK-801; assay: MK-801 induced hyperactivity mouse model; assay type: in vivo; details: mice, sc, salts of the compounds
Protocol: (§2) Five of the compounds listed in Table 2 were tested in an in vivo assay predictive of antipsychotic activity. Salts of these compounds where administered to mice having hyperactivity induced by amphetamine or MK-801 administration. The compounds were administered both subcutaneously (sc) and orally (po).

M1 receptor = target: T5, M1 receptor (Homo sapiens, UniProt P11229); assay: Receptor profile, M1 agonist activity
T5 sequence (P11229 1-460): T4 sequence (P11229 1-460)
Excerpt: (§3) Intrinsic activity was normalized to carbachol (M1) or pergolide (D2). For those ligands devoid of agonist activity, the values shown are pKi determined using [3H]raclopride.

D2 receptor = D2 receptor (Homo sapiens, UniProt P14416); assay: Receptor profile, D2 agonist activity
Excerpt: as §3

Rat microsomal clearance = assay type: in vitro ADME; details: rat microsomes
CYP 2C9 = CYP 2C9 (Homo sapiens, UniProt P11712); assay: CYP inhibition, 2C9; assay type: in vitro ADME
[3] = test system: hyperactivity induced by amphetamine; assay: Amphetamine induced hyperactivity mouse model; assay type: in vivo; details: mice, salts of the compounds
Protocol: as §2

CYP 2D6 = CYP 2D6 (Homo sapiens, UniProt P10635); assay: CYP inhibition, 2D6; assay type: in vitro ADME
Ames mutagenesis assay = assay type: cell-based; details: to 10 μM (cytotoxicity precluded evaluation of all concentrations)
[4] = dose approx. ID75 in MK-801 hyperactivity assay

Chain of D2 receptor (P14416 whole entry): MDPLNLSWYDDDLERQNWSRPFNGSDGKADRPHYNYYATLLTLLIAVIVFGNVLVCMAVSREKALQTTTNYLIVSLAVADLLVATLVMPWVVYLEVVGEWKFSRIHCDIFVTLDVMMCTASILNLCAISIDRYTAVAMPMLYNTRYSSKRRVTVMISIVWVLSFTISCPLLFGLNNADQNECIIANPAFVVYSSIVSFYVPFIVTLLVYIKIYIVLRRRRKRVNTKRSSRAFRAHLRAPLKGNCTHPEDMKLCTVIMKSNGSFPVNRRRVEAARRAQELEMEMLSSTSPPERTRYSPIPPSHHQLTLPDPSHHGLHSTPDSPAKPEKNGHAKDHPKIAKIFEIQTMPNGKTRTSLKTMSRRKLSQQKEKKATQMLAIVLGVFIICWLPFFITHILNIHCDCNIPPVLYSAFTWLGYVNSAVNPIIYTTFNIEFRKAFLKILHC
Chain of CYP 2D6 (P10635 whole entry): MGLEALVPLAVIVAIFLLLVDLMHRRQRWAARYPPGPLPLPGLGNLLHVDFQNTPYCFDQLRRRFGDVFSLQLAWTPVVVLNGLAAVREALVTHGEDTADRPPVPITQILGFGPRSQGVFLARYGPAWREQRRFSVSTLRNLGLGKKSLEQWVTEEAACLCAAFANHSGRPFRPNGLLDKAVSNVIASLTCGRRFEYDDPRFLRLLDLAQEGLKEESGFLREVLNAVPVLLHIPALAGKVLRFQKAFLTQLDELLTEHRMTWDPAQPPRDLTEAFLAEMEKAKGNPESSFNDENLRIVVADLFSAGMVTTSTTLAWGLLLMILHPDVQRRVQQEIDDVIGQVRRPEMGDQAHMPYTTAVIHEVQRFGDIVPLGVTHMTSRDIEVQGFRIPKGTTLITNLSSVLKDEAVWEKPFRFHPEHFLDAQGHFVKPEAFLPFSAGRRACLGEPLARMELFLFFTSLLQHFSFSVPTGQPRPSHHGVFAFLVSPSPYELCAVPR
Chain of 5-HT2A receptor (P28223 whole entry): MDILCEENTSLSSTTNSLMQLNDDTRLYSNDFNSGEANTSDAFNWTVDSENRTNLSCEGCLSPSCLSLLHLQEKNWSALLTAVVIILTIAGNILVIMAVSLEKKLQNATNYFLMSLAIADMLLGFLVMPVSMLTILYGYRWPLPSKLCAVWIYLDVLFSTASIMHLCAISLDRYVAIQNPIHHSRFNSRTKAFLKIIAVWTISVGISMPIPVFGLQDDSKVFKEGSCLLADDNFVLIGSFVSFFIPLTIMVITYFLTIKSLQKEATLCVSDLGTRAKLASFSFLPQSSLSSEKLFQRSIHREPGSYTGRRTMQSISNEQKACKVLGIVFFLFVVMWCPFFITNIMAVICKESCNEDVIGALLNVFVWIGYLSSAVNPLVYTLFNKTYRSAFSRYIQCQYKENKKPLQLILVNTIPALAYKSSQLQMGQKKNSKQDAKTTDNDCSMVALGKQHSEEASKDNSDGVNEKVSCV
Chain of CYP 2C19 (P33261 whole entry): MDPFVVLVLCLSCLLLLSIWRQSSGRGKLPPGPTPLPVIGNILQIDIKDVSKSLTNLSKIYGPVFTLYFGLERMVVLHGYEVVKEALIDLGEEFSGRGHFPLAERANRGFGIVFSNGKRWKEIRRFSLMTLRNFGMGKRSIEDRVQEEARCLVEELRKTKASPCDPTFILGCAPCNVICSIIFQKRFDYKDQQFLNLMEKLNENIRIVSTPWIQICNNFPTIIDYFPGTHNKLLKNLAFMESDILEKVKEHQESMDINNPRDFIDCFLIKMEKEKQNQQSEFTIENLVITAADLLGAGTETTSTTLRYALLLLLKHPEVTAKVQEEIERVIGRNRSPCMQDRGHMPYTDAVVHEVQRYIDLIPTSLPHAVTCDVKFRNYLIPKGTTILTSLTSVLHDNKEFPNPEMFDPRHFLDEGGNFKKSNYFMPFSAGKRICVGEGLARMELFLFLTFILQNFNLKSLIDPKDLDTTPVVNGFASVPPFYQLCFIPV
T2 sequence (P20309 whole entry): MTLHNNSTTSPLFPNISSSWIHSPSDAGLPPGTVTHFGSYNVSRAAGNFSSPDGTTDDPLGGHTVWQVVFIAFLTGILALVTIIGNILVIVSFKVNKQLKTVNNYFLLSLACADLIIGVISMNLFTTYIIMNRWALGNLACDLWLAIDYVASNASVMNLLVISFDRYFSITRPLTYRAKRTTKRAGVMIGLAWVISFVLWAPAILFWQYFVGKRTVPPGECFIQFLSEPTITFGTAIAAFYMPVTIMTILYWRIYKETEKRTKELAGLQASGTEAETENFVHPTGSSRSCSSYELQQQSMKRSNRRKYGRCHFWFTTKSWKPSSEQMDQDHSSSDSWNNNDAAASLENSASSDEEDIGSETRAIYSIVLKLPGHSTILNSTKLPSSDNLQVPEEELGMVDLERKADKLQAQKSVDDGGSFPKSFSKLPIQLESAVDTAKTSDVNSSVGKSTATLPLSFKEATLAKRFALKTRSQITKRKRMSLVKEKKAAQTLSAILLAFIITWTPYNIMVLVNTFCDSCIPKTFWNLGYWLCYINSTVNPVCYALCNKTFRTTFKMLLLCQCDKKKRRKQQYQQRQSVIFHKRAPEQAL
Chain of CYP 3A4 (P08684 whole entry): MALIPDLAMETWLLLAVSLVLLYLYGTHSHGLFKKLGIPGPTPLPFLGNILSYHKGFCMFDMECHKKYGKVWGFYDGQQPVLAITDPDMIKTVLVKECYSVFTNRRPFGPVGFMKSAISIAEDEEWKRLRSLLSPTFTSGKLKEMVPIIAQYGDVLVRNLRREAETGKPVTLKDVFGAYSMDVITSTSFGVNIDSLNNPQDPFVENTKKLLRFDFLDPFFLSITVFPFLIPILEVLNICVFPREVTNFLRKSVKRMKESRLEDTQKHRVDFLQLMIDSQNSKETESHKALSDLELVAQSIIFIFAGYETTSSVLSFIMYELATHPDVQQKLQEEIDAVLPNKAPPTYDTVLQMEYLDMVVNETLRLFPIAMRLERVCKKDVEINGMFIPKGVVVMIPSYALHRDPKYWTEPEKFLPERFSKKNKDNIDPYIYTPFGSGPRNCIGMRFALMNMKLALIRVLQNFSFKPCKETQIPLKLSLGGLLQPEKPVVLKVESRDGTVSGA
Chain of CYP 2C9 (P11712 whole entry): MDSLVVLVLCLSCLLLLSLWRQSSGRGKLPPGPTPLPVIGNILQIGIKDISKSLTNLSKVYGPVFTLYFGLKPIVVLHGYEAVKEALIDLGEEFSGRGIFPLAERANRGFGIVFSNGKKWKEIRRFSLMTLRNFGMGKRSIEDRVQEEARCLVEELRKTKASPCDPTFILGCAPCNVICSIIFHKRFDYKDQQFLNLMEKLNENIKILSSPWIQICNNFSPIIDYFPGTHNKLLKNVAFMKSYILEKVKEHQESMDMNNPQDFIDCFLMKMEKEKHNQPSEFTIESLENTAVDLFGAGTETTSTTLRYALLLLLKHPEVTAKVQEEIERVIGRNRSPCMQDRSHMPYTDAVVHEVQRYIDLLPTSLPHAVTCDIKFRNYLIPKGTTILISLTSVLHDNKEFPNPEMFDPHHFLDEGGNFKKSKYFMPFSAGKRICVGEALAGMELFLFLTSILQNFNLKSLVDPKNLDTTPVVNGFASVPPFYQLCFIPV
Chain of hERG (Q12809 whole entry): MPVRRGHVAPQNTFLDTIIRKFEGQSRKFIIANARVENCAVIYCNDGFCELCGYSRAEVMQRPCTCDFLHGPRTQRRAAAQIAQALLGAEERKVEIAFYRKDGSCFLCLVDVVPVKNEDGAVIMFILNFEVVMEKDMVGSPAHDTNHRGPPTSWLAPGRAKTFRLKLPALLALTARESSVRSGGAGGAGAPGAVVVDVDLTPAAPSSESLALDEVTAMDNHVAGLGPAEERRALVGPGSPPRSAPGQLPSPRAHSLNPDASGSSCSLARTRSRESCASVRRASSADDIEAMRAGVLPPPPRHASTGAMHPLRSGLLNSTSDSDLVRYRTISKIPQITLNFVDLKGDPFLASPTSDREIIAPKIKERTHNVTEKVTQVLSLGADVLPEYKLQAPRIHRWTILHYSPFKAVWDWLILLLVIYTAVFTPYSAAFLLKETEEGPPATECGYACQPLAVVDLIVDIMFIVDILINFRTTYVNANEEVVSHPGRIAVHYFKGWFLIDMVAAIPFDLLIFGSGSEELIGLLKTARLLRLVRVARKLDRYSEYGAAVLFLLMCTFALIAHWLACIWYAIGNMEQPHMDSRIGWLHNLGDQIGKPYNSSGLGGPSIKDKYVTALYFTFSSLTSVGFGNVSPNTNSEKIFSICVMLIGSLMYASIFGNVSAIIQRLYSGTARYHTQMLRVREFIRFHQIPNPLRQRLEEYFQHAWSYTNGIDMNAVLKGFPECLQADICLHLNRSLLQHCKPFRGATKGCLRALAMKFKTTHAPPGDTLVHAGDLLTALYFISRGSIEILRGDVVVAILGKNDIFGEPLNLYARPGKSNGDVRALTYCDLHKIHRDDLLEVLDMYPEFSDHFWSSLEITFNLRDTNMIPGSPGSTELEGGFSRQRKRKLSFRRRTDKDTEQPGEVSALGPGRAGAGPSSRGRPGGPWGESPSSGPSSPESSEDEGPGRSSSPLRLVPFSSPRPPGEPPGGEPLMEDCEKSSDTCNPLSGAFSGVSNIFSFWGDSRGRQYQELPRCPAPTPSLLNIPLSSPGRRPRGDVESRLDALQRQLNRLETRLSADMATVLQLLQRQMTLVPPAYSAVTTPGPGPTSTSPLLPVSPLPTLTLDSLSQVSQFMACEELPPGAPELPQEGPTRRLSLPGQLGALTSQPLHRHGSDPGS

CN1c2ccc(Cl)cc2N=C(N2CCNCC2)c2ccccc21 [8-Chloro-5-methyl-11-(piperazin-1-yl)-5H-dibenzo[b,e][1,4]diazepine]
NOR Interpretation (novel object recognition): no effect
NOR - 60 minutes post training (novel object recognition; [4]): retained
NOR - 120 minutes post training (novel object recognition; [4]): not retained
IC50 (CYP 2C19): > 10000 nM
Emax (muscarinic M2 receptor; read-out: M2 eff (efficacy)): 138%
EC50 (muscarinic M2 receptor; read-out: M2 pEC50 (converted)): 1260 nM
M3 eff (efficacy) (muscarinic M3 receptor): 14
IC50 (CYP 1A2): > 10000 nM
Emax (muscarinic M1 receptor; read-out: M1 eff (efficacy)): 65%
EC50 (muscarinic M1 receptor; read-out: M1 pEC50 (converted)): 79.4 nM
IC50 (CYP 3A4): 400 nM
microsomal CLint [1]: 23 µL/min/mg
IC50 (5-HT2A receptor): > 10000 nM
IC50 (hERG): 1300 nM
MK-801 model (ID50 mg/kg sc) [2]: 1.5 mg/kg
EC50 (M1 receptor): 79.4 nM
Emax (M1 receptor; read-out: M1 intrinsic activity %): 65%
EC50 (D2 receptor): 15.8 nM
Emax (D2 receptor; read-out: D2 intrinsic activity %): 29%
microsomal CLint (Rat microsomal clearance): 1090 µL/min/mg
IC50 (CYP 2C9): > 10000 nM
Amphetamine model (ID50 mg/kg po) ([3]; po): >10 mg/kg
Amphetamine model (ID50 mg/kg sc) ([3]; sc): 6.0 mg/kg
IC50 (CYP 2D6): > 10000 nM
Ames (Ames mutagenesis assay): Neg.
